Results on one molecule are retold here after patent US20100278733A1, “COMPOSITION FOR DIAGNOSIS OF AMYLOID-RELATED DISEASE” (priority 2007, published 2010).

In the experiment the target is T1, Aβ(1-40) aggregate (Homo sapiens, UniProt P05067).
T1 construct: Amyloid β protein (Human, 1-40) [HCl form]; purchased Peptide Institute, Inc
In words: In-vitro binding experiment of chalcone derivatives using Aβ aggregate (Reference Example 1). The following applies: in words; radioactivity on filter in presence vs absence of Aβ aggregate, FIG. 14; compound numbers of Reference Example 1. As to the method: As a radioactive iodine-125 (^125I), IODINE-125 (74 MBq) manufactured by Amersham Biosciences was used. Reverse phase HPLC was performed at a flow rate of 1.0 mL/min using Cosmosil 5C18-AR Column (4.6×150 mm) manufactured by Nacalai Tesque Inc. and ultrapure water (A) and acetonitrile (B) (A:B=40:60) as an elution solvent. ^1H-NMR was measured using Varian Gemini 300 and tetramethylsilane as an internal standard substance. Mass spectrometry was performed using JEOL IMS-DX300. Amyloid β protein (Human, 1-40) [HCl form] and Amyloid β protein (Human, 1-42) [TFA form] were purchased from Peptide Institute, Inc., and special grade reagents were used as other reagents.
The Aβ aggregate was dissolved in a buffer containing 10 mM sodium phosphate and 1 mM EDTA (pH 7.4) at a concentration of 0.5 mg/mL, and the mixture was incubated at 37° C. for 36 to 42 h. The binding experiment was performed using 12×75 mm borosilicate glass tubes. 900 μL of 10% ethanol solution, 50 μL (57 nM) of an Aβ(1-40) aggregate solution, and 50 μL of [^125I]Compound 7 or 12 having various concentrations were mixed, and the mixture was allowed to stand at room temperature for 3 h. […] The radioactivities of substances remaining in the filter used for filtration were measured with a γ counter.

T1 sequence (P05067 672-711 limits assumed): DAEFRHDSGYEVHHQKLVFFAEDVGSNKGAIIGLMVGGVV

For `CN(C)c1ccc(/C=C/C(=O)c2ccc(I)cc2)cc1` [Compound 12 in Reference Example 1], the “binding property to the Aβ aggregate” value is “strong binding property”.
